# According to patent US12043870B2, “Methods and compositions for detecting and modulating an immunotherapy resistance gene signature in cancer” (The Broad Institute, Inc., priority 2017, dated 2024):
# Where “and” joins values, the source holds several entries; their conditions need not be identical. Equal entries are not always repeated.
# Key:
# [1] = system: human melanoma cells (Melanoma cell line 2686); assay: Abemaciclib doubling time and cytostatic effect; type: cell-based; details: abemaciclib 500 nM
# Experimental: Cell number and viability were determined using the Countess™ II FL Automated Cell Counter (ThermoFisher) on days 2, 4 and 6. All experiments were performed in triplicates. Cell doubling per 24 hours was determined based on cell numbers comparing cells seeded and on day 6 using the following formula: duration (in days) x log(2)/log(final cell number) - log(initial cell number).
# melanoma cells = assay: Measurement of 40 human cytokines/chemokines in conditioned media of abemaciclib or DMSO treated cancer cells
# UACC257 = assay: scRNA-seq of melanoma cell line before and after treatment with abemaciclib for 1 week; type: cell-based, human; details: UACC257 (RB1-sufficient); abemaciclib 1 week; 10% prior to treatment
# Text: (§1) To determine this effect in melanoma, Applicants identified melanoma cell lines in the Cancer Cell Line Encyclopedia (CCLE) with the strongest expression of the uICR signature, including IGR37, UACC257 (both RB-sufficient) and A2058 (RB-deficient). Applicants performed scRNA-seq on these cell lines before and after treatment with abemaciclib for 1 week (FIG. 41). In both IGR37 and UACC257, Applicants saw a decrease in the expression of the uICR state (P<3.59*10^−34, one-sided t-test). […] This population decreased from 10% before treatment (2,454 cells) to 2% in the post-treatment condition (1,570 cells).
# (§2) To test this hypothesis, Applicants studied the effect of abemaciclib on the immune resistance program in melanoma cell lines. […] Applicants profiled each cell line with scRNA-seq before and after treatment with abemaciclib for 1 week (FIGS. 49D-E), analyzing over 23,000 cells in these and follow-up conditions (below). […]
# (§3) Established melanoma cell lines […] and A2058 were acquired from the Cancer Cell Line Encyclopedia (CCLE) from the Broad Institute. […] Cells were lifted off culture dishes using Versene solution (Life Technologies), washed twice in 1×PBS, counted and resuspended in PBS supplemented with 0.04% BSA for loading for scRNA-seq with the 10X Genomics platform.
# IGR37 = assay: as above; type: cell-based, human; details: IGR37 (RB1-sufficient); abemaciclib 1 week; 10% prior to treatment
# Text: as §1, §2, §3
smiles,measurement,setting,value
CCN1CCN(Cc2ccc(Nc3ncc(F)c(-c4cc(F)c5nc(C)n(C(C)C)c5c4)n3)nc2)CC1 [abemaciclib],cytotoxic effects,[1],do not find significant cytotoxic effects
same,rate of proliferation,[1]; DMSO 0.64,0.3 doublings/24 hrs
same,Fold change (abemaciclib vs. DMSO treatment),melanoma cells; Hu 6Ckine/CCL21,0.9700
same,Fold change (abemaciclib vs. DMSO treatment),melanoma cells; Hu CTACK/CCL27,1.0834
same,Fold change (abemaciclib vs. DMSO treatment),melanoma cells; Hu ENA-78/CXCL5,1.0188
same,Fold change (abemaciclib vs. DMSO treatment),melanoma cells; Hu Eotaxin-3/CCL26,3.0279
same,Fold change (abemaciclib vs. DMSO treatment),melanoma cells; Hu Eotaxin/CCL11,0.9599
same,Fold change (abemaciclib vs. DMSO treatment),melanoma cells; Hu Fractalkine/CX3CL1,2.1863
same,Fold change (abemaciclib vs. DMSO treatment),melanoma cells; Hu GCP-2/CXCL6,0.6386
same,Fold change (abemaciclib vs. DMSO treatment),melanoma cells; Hu GM-CSF,1.0191
same,Fold change (abemaciclib vs. DMSO treatment),melanoma cells; Hu Gro-a/CXCL1,0.9135
same,Fold change (abemaciclib vs. DMSO treatment),melanoma cells; Hu Gro-b/CXCL2,0.7471
same,Fold change (abemaciclib vs. DMSO treatment),melanoma cells; Hu I-309/CCL1,1.0389
same,Fold change (abemaciclib vs. DMSO treatment),melanoma cells; Hu I-TAC/CXCL11,0.9524
same,Fold change (abemaciclib vs. DMSO treatment),melanoma cells; Hu IL-1b,1.0719
same,Fold change (abemaciclib vs. DMSO treatment),melanoma cells; Hu IL-2,0.5882
same,Fold change (abemaciclib vs. DMSO treatment),melanoma cells; Hu IL-4,1.6605
same,Fold change (abemaciclib vs. DMSO treatment),melanoma cells; Hu IL-6,0.3788
same,Fold change (abemaciclib vs. DMSO treatment),melanoma cells; Hu IL-8,0.7253
same,Fold change (abemaciclib vs. DMSO treatment),melanoma cells; Hu IL-10,1.0079
same,Fold change (abemaciclib vs. DMSO treatment),melanoma cells; Hu IL-16,0.8482
same,Fold change (abemaciclib vs. DMSO treatment),melanoma cells; Hu IP-10/CXCL10,0.9103
same,Fold change (abemaciclib vs. DMSO treatment),melanoma cells; Hu MCP-1/CCL2,0.7175
same,Fold change (abemaciclib vs. DMSO treatment),melanoma cells; Hu MCP-2/CCL8,1.0388
same,Fold change (abemaciclib vs. DMSO treatment),melanoma cells; Hu MCP-3/CCL7,1.0422
same,Fold change (abemaciclib vs. DMSO treatment),melanoma cells; Hu MCP-4/CCL13,0.8887
same,Fold change (abemaciclib vs. DMSO treatment),melanoma cells; Hu MDC/CCL22,1.1142
same,Fold change (abemaciclib vs. DMSO treatment),melanoma cells; Hu MIF,2.9587
same,Fold change (abemaciclib vs. DMSO treatment),melanoma cells; Hu MIP-1a/CCL3,1.0350
same,Fold change (abemaciclib vs. DMSO treatment),melanoma cells; Hu MIP-3a/CCL20,3.4000
same,Fold change (abemaciclib vs. DMSO treatment),melanoma cells; Hu MIP-3b/CCL19,0.8717
same,Fold change (abemaciclib vs. DMSO treatment),melanoma cells; Hu MIP-1d/CCL15,1.0809
same,Fold change (abemaciclib vs. DMSO treatment),melanoma cells; Hu SCYB16/CXCL16,1.1278
same,Fold change (abemaciclib vs. DMSO treatment),melanoma cells; Hu SDF1a + b/CXCL12,0.8885
same,Fold change (abemaciclib vs. DMSO treatment),melanoma cells; Hu TARC/CCL17,1.0104
same,Fold change (abemaciclib vs. DMSO treatment),melanoma cells; Hu TECK/CCL25,1.5510
same,Fold change (abemaciclib vs. DMSO treatment),melanoma cells; Hu TNF-a,0.7465
same,"fraction of cells with exceptionally strong expression of the immune resistance program (""immune resistant"" cells) post-treatment",UACC257,1% and 0.6%
same,"fraction of cells with exceptionally strong expression of the immune resistance (uICR) program (""immune resistant"" cells) post-treatment",IGR37,2%
